# Several values for one entry are separate records, joined by “and”; a condition that tells them apart may be missing. Equal entries are not always repeated. Inconclusive results and toxic doses are left out.
# Test system: P388 leukemia ip, CD2F1 mice, survival T/C
# Test: NCI In Vivo Anticancer Drug Screen. Data for tumor model P388 Leukemia (intraperitoneal) in CD2F1 (CDF1) mice
# Conditions: endpoint: median survival time, higher = longer survival
# Outline: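 Mice carrying the transplanted tumor received test compound or vehicle. Survival was recorded in each group, and the value is the treated-group measurement divided by that of the vehicle-treated control group.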
# [1] = dose: 50.0 mg/kg/injection, schedule: Q01DX005 (ip), vehicle: saline with Tween-80
# [2] = dose: 100.0 mg/kg/injection, schedule: Q01DX005 (ip), vehicle: saline with Tween-80
# [3] = dose: 200.0 mg/kg/injection, schedule: Q01DX005 (ip), vehicle: saline with Tween-80
# [4] = dose: 50.0 mg/kg/injection, schedule: Q01DX005 (ip), vehicle: Klucel (hydroxypropylcellulose) (HPC)
# [5] = dose: 100.0 mg/kg/injection, schedule: Q01DX005 (ip), vehicle: Klucel (hydroxypropylcellulose) (HPC)
# [6] = dose: 200.0 mg/kg/injection, schedule: Q01DX005 (ip), vehicle: Klucel (hydroxypropylcellulose) (HPC)
# [7] = dose: 60.0 mg/kg/injection, schedule: Q01DX005 (ip), vehicle: saline with Tween-80
# [8] = dose: 120.0 mg/kg/injection, schedule: Q01DX005 (ip), vehicle: saline with Tween-80
# [9] = dose: 240.0 mg/kg/injection, schedule: Q01DX005 (ip), vehicle: saline with Tween-80
# [10] = dose: 25.0 mg/kg/injection, schedule: Q01DX009 (ip), vehicle: distilled water + Tween-80
# [11] = dose: 50.0 mg/kg/injection, schedule: Q01DX009 (ip), vehicle: saline
# [12] = dose: 100.0 mg/kg/injection, schedule: Q01DX009 (ip), vehicle: saline
# [13] = dose: 200.0 mg/kg/injection, schedule: Q01DX009 (ip), vehicle: saline
smiles,measurement,setting,value
Cc1c2ccnc(C#N)c2c(C)c2c1[nH]c1ccccc12,T/C,"dose: 0.78 mg/kg/injection, schedule: Q04DX003 (ip), vehicle: distilled water + Tween-80",91 % of control
same,T/C,"dose: 1.56 mg/kg/injection, schedule: Q04DX003 (ip), vehicle: distilled water + Tween-80",97 % of control
same,T/C,"dose: 3.13 mg/kg/injection, schedule: Q04DX003 (ip), vehicle: distilled water + Tween-80",97 % of control
same,T/C,"dose: 6.25 mg/kg/injection, schedule: Q04DX003 (ip), vehicle: distilled water + Tween-80",87 % of control and 88 % of control
NC(=S)n1nc(-c2ccccc2)c(N=Nc2ccc(O)cc2)c1-c1ccccc1,T/C,[1],100 % of control
same,T/C,[2],103 % of control
same,T/C,[3],98 % of control
[NH-][n+]1c2c(nc3ccccc31)-c1cccc3cccc-2c13,T/C,[4],103 % of control
same,T/C,"dose: 100.0 mg/kg/injection, schedule: Q01DX001 (ip), vehicle: Klucel (hydroxypropylcellulose) (HPC)",97 % of control
same,T/C,[5],112 % of control
same,T/C,"dose: 200.0 mg/kg/injection, schedule: Q01DX001 (ip), vehicle: Klucel (hydroxypropylcellulose) (HPC)",100 % of control
same,T/C,[6],105 % of control
same,T/C,"dose: 400.0 mg/kg/injection, schedule: Q01DX001 (ip), vehicle: Klucel (hydroxypropylcellulose) (HPC)",102 % of control
CCc1c(-c2ccccc2)nc(N(C)C)oc1=O,T/C,[7],106 % of control
same,T/C,[8],100 % of control
same,T/C,[9],98 % of control
COC(=O)C(CSC(c1ccccc1)(c1ccccc1)c1ccccc1)NC(=O)CC(NC(=O)OCc1ccccc1)C(N)=O (stereo not given),T/C,"dose: 12.5 mg/kg/injection, schedule: Q01DX009 (ip), vehicle: distilled water + Tween-80",106 % of control
same,T/C,[10],93 % of control
same,T/C,"dose: 50.0 mg/kg/injection, schedule: Q01DX009 (ip), vehicle: distilled water + Tween-80",103 % of control
same,T/C,"dose: 100.0 mg/kg/injection, schedule: Q01DX009 (ip), vehicle: distilled water + Tween-80",94 % of control
same,T/C,"dose: 200.0 mg/kg/injection, schedule: Q01DX009 (ip), vehicle: distilled water + Tween-80",102 % of control
C/C=C1/CN2C3CC45c6ccccc6N(C)C4C2CC1C3C5O (stereo not given),T/C,[1],98 % of control
same,T/C,[2],97 % of control
CC1([N+](=O)[O-])C(=O)C2(N3CCCC3)CCCC2C1c1ccccc1 (stereo not given),T/C,"dose: 60.0 mg/kg/injection, schedule: Q01DX005 (ip), vehicle: Klucel (hydroxypropylcellulose) (HPC)",99 % of control
same,T/C,"dose: 120.0 mg/kg/injection, schedule: Q01DX005 (ip), vehicle: Klucel (hydroxypropylcellulose) (HPC)",91 % of control
same,T/C,"dose: 240.0 mg/kg/injection, schedule: Q01DX005 (ip), vehicle: Klucel (hydroxypropylcellulose) (HPC)",90 % of control
O=C(/C=C/c1ccccc1)O[C@@H]1CC2CC1C[C@@H]2c1cnc[nH]1 (stereo not given in full),T/C,"dose: 25.0 mg/kg/injection, schedule: Q04DX002 (ip), vehicle: saline with Tween-80",98 % of control
same,T/C,"dose: 50.0 mg/kg/injection, schedule: Q04DX002 (ip), vehicle: saline with Tween-80",100 % of control
same,T/C,"dose: 100.0 mg/kg/injection, schedule: Q04DX002 (ip), vehicle: saline with Tween-80",99 % of control
CN(CCCCCC(=O)O)c1ccncc1,T/C,"dose: 50.0 mg/kg/injection, schedule: Q01DX005 (ip), vehicle: saline",103 % of control
same,T/C,"dose: 100.0 mg/kg/injection, schedule: Q01DX005 (ip), vehicle: saline",100 % of control
same,T/C,"dose: 200.0 mg/kg/injection, schedule: Q01DX005 (ip), vehicle: saline",108 % of control
COc1ccc2c(n1)Sc1nc3ccccc3nc1N2,T/C,[7],100 % of control
same,T/C,[8],100 % of control
same,T/C,[9],101 % of control
CC/C(C)=N/NC(=S)NC,T/C,"dose: 6.25 mg/kg/injection, schedule: Q01DX009 (ip), vehicle: saline",98 % of control
same,T/C,"dose: 12.5 mg/kg/injection, schedule: Q01DX009 (ip), vehicle: saline",98 % of control
same,T/C,"dose: 25.0 mg/kg/injection, schedule: Q01DX009 (ip), vehicle: saline",101 % of control
c1cc2c(cn1)Sc1cnccc1N2,T/C,"dose: 6.25 mg/kg/injection, schedule: Q01DX009 (ip), vehicle: distilled water + Tween-80",90 % of control
same,T/C,[10],107 % of control
Cc1[nH]oc(=O)c1C(=O)c1ccccc1,T/C,[1],95 % of control
same,T/C,[2],91 % of control
same,T/C,[3],91 % of control
CCOC(=O)C1(Br)CCCCC1,T/C,"dose: 50.0 mg/kg/injection, schedule: Q01DX009 (ip), vehicle: saline with Tween-80",109 % of control
same,T/C,"dose: 100.0 mg/kg/injection, schedule: Q01DX009 (ip), vehicle: saline with Tween-80",111 % of control
same,T/C,"dose: 200.0 mg/kg/injection, schedule: Q01DX009 (ip), vehicle: saline with Tween-80",103 % of control
O=C(O)c1cc(-c2ccc(O)c(O)c2)nc2cc3ccccc3cc12,T/C,"dose: 50.0 mg/kg/injection, schedule: Q01DX009 (ip), vehicle: Klucel (hydroxypropylcellulose) (HPC)",97 % of control
same,T/C,"dose: 100.0 mg/kg/injection, schedule: Q01DX009 (ip), vehicle: Klucel (hydroxypropylcellulose) (HPC)",108 % of control
same,T/C,"dose: 200.0 mg/kg/injection, schedule: Q01DX009 (ip), vehicle: Klucel (hydroxypropylcellulose) (HPC)",92 % of control
CCNCC(O)c1ccc(F)cc1 (stereo not given),T/C,[11],101 % of control
same,T/C,[12],96 % of control
same,T/C,[13],91 % of control
CCC(C)C(NC(=O)CCl)C(=O)O (stereo not given),T/C,[11],99 % of control
same,T/C,[12],96 % of control
same,T/C,[13],101 % of control
CC(C)(C)OC(=O)NCC(=O)NC(CSC(c1ccccc1)c1ccccc1)C(=O)NCC(=O)O (stereo not given),T/C,[4],105 % of control
same,T/C,[5],99 % of control
O=C(Nc1ccc(NC(=O)Nc2cccc(C3=NCCCN3)c2)cc1)Nc1ccc(C2=NCCCN2)cc1,T/C,"dose: 2.5 mg/kg/injection, schedule: Q01DX009 (ip), vehicle: saline with Tween-80",113 % of control
same,T/C,"dose: 5.0 mg/kg/injection, schedule: Q04DX003 (ip), vehicle: saline with Tween-80",100 % of control
same,T/C,"dose: 10.0 mg/kg/injection, schedule: Q04DX003 (ip), vehicle: saline with Tween-80",109 % of control
COc1cc(NC(=O)N(CCCl)N=O)cc(OC)c1OC,T/C,"dose: 0.18 mg/kg/injection, schedule: Q01DX009 (ip), vehicle: alcohol",107 % of control
same,T/C,"dose: 0.27 mg/kg/injection, schedule: Q01DX009 (ip), vehicle: alcohol",109 % of control
same,T/C,"dose: 0.4 mg/kg/injection, schedule: Q01DX009 (ip), vehicle: alcohol",100 % of control
same,T/C,"dose: 0.6 mg/kg/injection, schedule: Q01DX009 (ip), vehicle: alcohol",107 % of control
same,T/C,"dose: 1.33 mg/kg/injection, schedule: Q01DX009 (ip), vehicle: saline + alcohol",173 % of control
same,T/C,"dose: 2.0 mg/kg/injection, schedule: Q01DX009 (ip), vehicle: saline + alcohol",170 % of control
same,T/C,"dose: 7.5 mg/kg/injection, schedule: Q04DX003 (ip), vehicle: saline + alcohol",154 % of control
same,T/C,"dose: 12.5 mg/kg/injection, schedule: Q04DX003 (ip), vehicle: other",215 % of control
same,T/C,"dose: 25.0 mg/kg/injection, schedule: Q04DX003 (ip), vehicle: other",280 % of control
same,T/C,"dose: 50.0 mg/kg/injection, schedule: Q04DX003 (ip), vehicle: other",300 % of control
CC(C)(Br)C(=O)NN=C(c1ccccc1)c1ccccc1,T/C,[11],100 % of control
same,T/C,[12],100 % of control
same,T/C,[13],100 % of control
COC1CC(NC(C)=O)C(OC(=O)c2ccccc2)C(CBr)O1 (stereo not given),T/C,"dose: 1.56 mg/kg/injection, schedule: Q01DX009 (ip), vehicle: other",94 % of control
same,T/C,"dose: 3.13 mg/kg/injection, schedule: Q01DX009 (ip), vehicle: other",94 % of control
same,T/C,"dose: 6.25 mg/kg/injection, schedule: Q01DX009 (ip), vehicle: other",106 % of control
same,T/C,"dose: 12.5 mg/kg/injection, schedule: Q01DX009 (ip), vehicle: other",108 % of control
same,T/C,"dose: 25.0 mg/kg/injection, schedule: Q01DX009 (ip), vehicle: other",100 % of control and 106 % of control
same,T/C,"dose: 50.0 mg/kg/injection, schedule: Q01DX009 (ip), vehicle: other",101 % of control
same,T/C,"dose: 100.0 mg/kg/injection, schedule: Q01DX009 (ip), vehicle: other",104 % of control
same,T/C,"dose: 200.0 mg/kg/injection, schedule: Q01DX009 (ip), vehicle: other",97 % of control
same,T/C,"dose: 400.0 mg/kg/injection, schedule: Q01DX009 (ip), vehicle: other",92 % of control
C(=NCCC[Si]12OCCN(CCO1)CCO2)c1c[nH]c2ccccc12,T/C,[4],104 % of control
same,T/C,[5],103 % of control
same,T/C,[6],102 % of control
